For orientation: IC50 means the point on the concentration scale where inhibition reaches its midpoint.

The target in one test is KRAS WT (Homo sapiens (Human), UniProt P01116). The test can be described thus: KRAS WT Biochemical Assay, BODIPY-GDP Exchange TR-FRET (Example 501; 3 nM KRAS WT, 3 nM SOS1, 60-minute incubation). The protocol:
Example 501: KRAS WT Biochemical Assay, BODIPY-GDP Exchange TR-FRET. Biochemical compound potencies are assessed by evaluating inhibition of SOS1-mediated nucleotide exchange in KRAS WT. In this assay, the SOS1-promoted exchange of fluorescently-labeled GDP (BOPIDY-GDP) is monitored by time-resolved fluorescence resonance energy transfer (TR-FRET). Compounds solubilized in DMSO are dispensed as concentration series into 384-well white assay plates, and 5 uL assay buffer (20 mM HEPES, pH 7.5, 50 mM NaCl, 10 mM MgCl2, 0.01% Tween-20 and 1 mM dithiothreitol) is added just prior to the start of the assay. A preformed complex of 3 nM biotin-tagged recombinant human KRAS WT and 0.3 nM terbium-labeled streptavidin (CisBIO) prepared in 5 uL/well assay buffer is added and allowed to incubate for 10-minutes at room temperature. The reaction is initiated with the addition of 5 uL 3 nM recombinant human SOS1 and 300 nM BODIPY-GDP in assay buffer. After a 60-minute incubation, the fluorescence is measured with excitation at 337 nm and emission at 490 and 520 nm. The TR-FRET ratio is determined as the fluorescence at 520 nm divided by the fluorescence at 490 nm multiplied by 10,000. The results are normalized to percent inhibition based on control samples: DMSO (0% inhibition) and control compound at a concentration that inhibits completely (100% inhibition). The normalized TR-FRET results are plotted against compound concentration, and the data are fit to a 4-parameter Hill equation to determine the IC50 values.
(In general: In TR-FRET formats the signal depends on donor and acceptor labels being close together.)

The target in another test is KRAS G12D (Homo sapiens (Human), UniProt P01116, G12D). Put plainly: KRAS G12D LoEnz Biochemical Assay, BODIPY-GDP Exchange TR-FRET (SOS1-mediated nucleotide exchange). The conditions noted are these: read-out: KRas (G12D) GDP HTRF IC50. The protocol:
Example 500: KRAS G12D LoEnz Biochemical Assay, BODIPY-GDP Exchange TR-FRET. Biochemical compound potencies are assessed by evaluating inhibition of SOS1I-mediated nucleotide exchange in KRAS G121D. In this assay, the SOS1-promoted exchange of fluorescently-labeled GDP (BOPIDY-GDP) is monitored by time-resolved fluorescence resonance energy transfer (TR-FRET). Compounds solubilized in DMS0 are dispensed as concentration series into 384-well white assay plates. A preformed complex of biotin-tagged recombinant human KRAS (0.06 nM mutant G1 2D) and 0.06 nM terbium-labeled streptavidin (CisBIO) prepared in 10 uL/well assay buffer (20 mM HEPES, pH 7.5, 50 mM NaCl, 10 mMMMgCl2, 0.0100 Tween-20 and 1 mM dithiothreitol) is added and allowed to incubate for 10-minutes at room temperature. The reaction is initiated with the addition of 5 uL 300 nM recombinant human SOS1 and 300 nM BODIPY-GDP in assay buffer. After a 120-minute incubation, the fluorescence is measured with excitation at 337 nm and emission at 490 and 520 nm. The TR-FRET ratio is determined as the fluorescence at 520 nm divided by the fluorescence at 490 nm multiplied by 10,000. The results are normalized to percent inhibition based on control samples: DMSO (0% inhibition) and control compound at a concentration that inhibits completely (100% inhibition). The normalized TR-FRET results are plotted against compound concentration, and the data are fit to a 4-parameter Hill equation to determine the IC50 values.

Where [1] appears, read: read-out: KRas(wt) GDP HTRF IC50.

Where two headings read alike, the source gives them in different places.

Sequence of KRAS G12D (P01116-2 other isoform, or with tags, fused parts or gaps G12D): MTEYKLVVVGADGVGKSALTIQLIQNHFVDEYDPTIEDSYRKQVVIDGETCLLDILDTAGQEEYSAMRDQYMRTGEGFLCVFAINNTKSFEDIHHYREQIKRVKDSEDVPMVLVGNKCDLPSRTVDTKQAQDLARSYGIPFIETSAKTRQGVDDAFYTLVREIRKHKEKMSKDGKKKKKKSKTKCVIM
Sequence of KRAS WT (P01116-2 other isoform, or with tags, fused parts or gaps): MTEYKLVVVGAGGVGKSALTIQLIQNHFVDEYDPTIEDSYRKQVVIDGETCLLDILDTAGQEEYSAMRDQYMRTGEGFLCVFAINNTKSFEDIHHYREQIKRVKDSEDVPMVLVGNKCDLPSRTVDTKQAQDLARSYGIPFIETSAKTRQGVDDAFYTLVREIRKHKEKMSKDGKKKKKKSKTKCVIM

On to `Cc1c(F)c(N)cc(-c2nc3c4c(nc(OC[C@@]56CCCN5C[C@H](F)C6)nc4c2F)N2C[C@H]4CC[C@H](N4)[C@H]2[C@H](C(F)(F)F)O3)c1CC(F)F` [Compound 250, 4-(2,2-Difluoroethyl)-2-fluoro-5-((5R,5aS,6S,9R)-1-fluoro-12-(((2R,7aS)-2-fluorotetrahydro-1H-pyrrolizin-7a(5H)-yl)methoxy)-5-(trifluoromethyl)-5a,6,7,8,9,10-hexahydro-5H-4-oxa-3,10a,11,13,14-pentaaza-6,9-methanonaphtho[1,8-ab]heptalene-2-yl)-3-methylaniline], for which the IC50 on KRAS WT (read-out: KRas HTRF IC50) stood at 13.6 nM; at KRAS G12D it was 0.39 nM.
The like results for `Cc1nc(N)c(C)c(-c2nc3c4c(nc(OC[C@@]56CCCN5C[C@H](F)C6)nc4c2F)N2C[C@H]4CC[C@H](N4)[C@H]2[C@H](C)O3)c1C(F)(F)F` [Compound 198, 4-((5S,5aS,6S,9R)-1-Fluoro-12-(((2R,7aS)-2-fluorotetrahydro-1H-pyrrolizin-7a(5H)-yl)methoxy)-5-methyl-5a,6,7,8,9,10-hexahydro-5H-4-oxa-3,10a,11,13,14-pentaaza-6,9-methanonaphtho[1,8-ab]heptalen-2-yl)-3,6-dimethyl-5-(trifluoromethyl)pyridin-2-amine] were, in that order, 85.8 nM and 0.62 nM.
On the same counts, the results for `Cc1cc(N)cc(-c2nc3c4c(nc(OC[C@@H]5CC[C@H]6COCCN65)nc4c2F)N2C[C@H]4CC[C@H](N4)[C@H]2[C@H](C)O3)c1CC(F)F` [Compound 230, 4-(2,2-Difluoroethyl)-3-((5S,5aS,6S,9R)-1-fluoro-12-(((6S,8aS)-hexahydro-1H-pyrrolo[2,1-c][1,4]oxazin-6-yl)methoxy)-5-methyl-5a,6,7,8,9,10-hexahydro-5H-4-oxa-3,10a,11,13,14-pentaaza-6,9-methanonaphtho[1,8-ab]heptalen-2-yl)-5-methylaniline] are 213 nM and 1.13 nM.
Take `Cc1cc(N)nc(-c2nc3c4c(nc(OC[C@@]56CCCN5CC5(CC5(F)F)C6)nc4c2F)N2C[C@H]4CC[C@H](N4)[C@H]2[C@H](C)O3)c1C(F)(F)F` (stereo partly drawn) [Compound 47, 6-((5S,5aS,6S,9R)-12-(((7a′S)-2,2-difluorodihydro-1′H,3′H-spiro[cyclopropane-1,2′-pyrrolizin]-7a′(5′H)-yl)methoxy)-1-fluoro-5-methyl-5a,6,7,8,9,10-hexahydro-5H-4-oxa-3,10a,11,13,14-pentaaza[6,9]methanonaphtho[1,8-ab]heptalen-2-yl)-4-methyl-5-(trifluoromethyl)pyridin-2-amine]: the values for the IC50 on KRAS WT (setting [1]) and on KRAS G12D were 4.43 nM and 0.443 nM, respectively.
Take `C[C@@H]1Oc2nc(-c3cc(N)c(F)cc3C(F)(F)F)c(F)c3nc(OC[C@@]45CCCN4C[C@H](F)C5)nc(c23)N2C[C@H]3CC[C@H](N3)[C@@H]12` [Compound 14, 2-fluoro-5-((5S,5aS,6S,9R)-1-fluoro-12-(((2R,7aS)-2-fluorotetrahydro-1H-pyrrolizin-7a(5H)-yl)methoxy)-5-methyl-5a,6,7,8,9,10-hexahydro-5H-4-oxa-3,10a,11,13,14-pentaaza-6,9-methanonaphtho[1,8-ab]heptalen-2-yl)-4-(trifluoromethyl)aniline]: the IC50 at KRAS WT (setting [1]) turned out to be 6.58 nM; on KRAS G12D it was 0.26 nM.
Regarding `Cc1cc(N)c(F)c(-c2nc3c4c(nc(OC[C@@]56CCCN5CC5(CC5(F)F)C6)nc4c2F)N2C[C@H]4CC[C@H](N4)[C@H]2[C@H](C)O3)c1C(F)(F)F` (stereo partly drawn) [Compound 227, 3-((5S,5aS,6S,9R)-12-(((7a′S)-2,2-Difluorodihydro-1′H,3′H-spiro[cyclopropane-1,2′-pyrrolizin]-7a′(5′H)-yl)methoxy)-1-fluoro-5-methyl-5a,6,7,8,9,10-hexahydro-5H-4-oxa-3,10a,11,13,14-pentaaza[6,9]methanonaphtho[1,8-ab]heptalene-2-yl)-2-fluoro-5-methyl-4-(trifluoromethyl)aniline], the concentration for half-maximal inhibition (IC50) came out at 0.938 nM at KRAS WT (read-out: KRas HTRF IC50) and 0.21 nM on KRAS G12D.
Consider `C[C@@H]1Oc2nc(-c3c(C(F)(F)F)ccc(N)c3F)c(F)c3nc(OC[C@@]45CCCN4C[C@H](F)C5)nc(c23)N2C[C@H]3CC[C@H](N3)[C@@H]12` [Compound 35, 2-fluoro-3-((5S,5aS,6S,9R)-1-fluoro-12-(((2R,7aS)-2-fluorotetrahydro-1H-pyrrolizin-7a(5H)-yl)methoxy)-5-methyl-5a,6,7,8,9,10-hexahydro-5H-4-oxa-3,10a,11,13,14-pentaaza-6,9-methanonaphtho[1,8-ab]heptalen-2-yl)-4-(trifluoromethyl)aniline], for which the figures for the IC50 at KRAS WT (setting [1]) and on KRAS G12D were 15.8 nM and 0.57 nM, respectively.
Regarding `Cc1c(F)c(N)cc(-c2nc3c4c(nc(OC[C@]56CCN5CC(F)(F)C6)nc4c2F)N2C[C@H]4CC[C@H](N4)[C@H]2[C@H](C)O3)c1C(F)(F)F` [Compound 24, 5-((5S,5aS,6S,9R)-12-(((R)-3,3-difluoro-1-azabicyclo[3.2.0]heptan-5-yl)methoxy)-1-fluoro-5-methyl-5a,6,7,8,9,10-hexahydro-5H-4-oxa-3,10a,11,13,14-pentaaza-6,9-methanonaphtho[1,8-ab]heptalen-2-yl)-2-fluoro-3-methyl-4-(trifuoromethyl)aniline], the IC50 at KRAS WT (setting [1]) amounted to 3.28 nM; at KRAS G12D it was 0.29 nM.
`Cc1nc(N)cc(-c2nc3c4c(nc(OCC5(CN6CCOC7(CC7)C6)CC5)nc4c2F)N2C[C@H]4CC[C@H](N4)[C@H]2[C@H](C)O3)c1C(F)(F)F` [Compound 212, 4-((5S,5aS,6S,9R)-12-((1-((4-Oxa-7-azaspiro[2.5]octan-7-yl)methyl)cyclopropyl)methoxy)-1-fluoro-5-methyl-5a,6,7,8,9,10-hexahydro-5H-4-oxa-3,10a,11,13,14-pentaaza[6,9]methanonaphtho[1,8-ab]heptalene-2-yl)-6-methyl-5-(trifluoromethyl)pyridin-2-amine]: the results for the IC50 on KRAS WT (read-out: KRas HTRF IC50) and on KRAS G12D were 39.1 nM and 0.56 nM, respectively.
`Cc1c(F)c(N)cc(-c2nc3c4c(nc(OC[C@@]56CCCN5C[C@H](F)C6)nc4c2F)N2C[C@H]4CC[C@H](NC4)[C@H]2CO3)c1C(F)(F)F` [Compound 236, 2-Fluoro-5-((5aS,6S,9S)-1-fluoro-12-(((2R,7aS)-2-fluorotetrahydro-1H-pyrrolizin-7a(5H)-yl)methoxy)-5a,6,7,8,9,10-hexahydro-5H-4-oxa-3,10a,11,13,15-pentaaza-6,9-ethanonaphtho[1,8-ab]heptalene-2-yl)-3-methyl-4-(trifluoromethyl)aniline]: the IC50 at KRAS WT (read-out: KRas HTRF IC50) was found to be 830 nM; on KRAS G12D, 68 nM.
Take `Cc1nc(N)cc(-c2nc3c4c(nc(OCC5(CN6C[C@H]7C[C@@H]6CO7)CC5)nc4c2F)N2C[C@H]4CC[C@H](N4)[C@H]2[C@H](C)O3)c1C(F)(F)F` [Compound 209, 4-((5S,5aS,6S,9R)-12-((1-(((1R,4R)-2-Oxa-5-azabicyclo[2.2.1]heptan-5-yl)methyl)cyclopropyl)methoxy)-1-fluoro-5-methyl-5a,6,7,8,9,10-hexahydro-5H-4-oxa-3,10a,11,13,14-pentaaza-6,9-methanonaphtho[1,8-ab]heptalene-2-yl)-6-methyl-5-(trifluoromethyl)pyridin-2-amine]: the IC50 at KRAS WT (read-out: KRas HTRF IC50) amounted to 18.5 nM; at KRAS G12D, 0.24 nM.
Consider `Cc1c(F)c(O)cc(-c2nc3c4c(nc(OC[C@@]56CCCN5C[C@H](F)C6)nc4c2F)N2C[C@H]4CC[C@H](N4)[C@H]2[C@H](C)O3)c1C(F)(F)F` [Compound 202, 2-Fluoro-5-((5S,5aS,6S,9R)-1-fluoro-12-(((2R,7aS)-2-fluorotetrahydro-1H-pyrrolizin-7a(5H)-yl)methoxy)-5-methyl-5a,6,7,8,9,10-hexahydro-5H-4-oxa-3,10a,11,13,14-pentaaza-6,9-methanonaphtho[1,8-ab]heptalen-2-yl)-3-methyl-4-(trifluoromethyl)phenol], for which the results for the half-maximal inhibitory concentration (IC50) on KRAS WT (read-out: KRas HTRF IC50) and on KRAS G12D were 214 nM and 1.98 nM, respectively.

Values taken from patent US20240025919A1, “AZA-TETRACYCLIC OXAZEPINE COMPOUNDS AND USES THEREOF” (Genentech, Inc., priority 2022, published 2024).
